Data on three molecules can be found in PMC12078400, “Terminal spin labeling of xylotriose strongly affects interactions in the active site of xylanase BcX” (Journal of Biomolecular Nmr, 2025).

Where two headings read alike, the source gives them in different places.

In assay [1] the target is T1, BcX E78Q (Niallia circulans, UniProt P09850, E106Q).
T1 construct: made in house
Kind of assay: NMR titration (1H-15N HSQC) of 15N-labeled BcX E78Q with ligand. The format is binding, Bacillus circulans. The method, then:
(§1) Solutions of ^15N-labeled BcX E78Q and BcX E78Q-Y69A (100 µM) were titrated with Dia-X3 and Para-X3. Concentrations of up to 50 mM for Dia-X3 and 8 mM for Para-X3 were used. Samples were prepared separately, and each contained 25 mM sodium acetate buffer (pH 5.8) and 10% D2O for lock. ^1H − ^15N HSQC spectra were obtained on a Bruker HD Avance 850 MHz spectrometer with a cryoprobe, at 20 °C, using 3 mm tubes. In one experiment Para-X3 was reduced in the NMR tube with ascorbic acid to study the effect of reduction in a single sample. The assignment, processing, and analysis of the HSQC spectra were conducted as detailed before (Saberi et al. [2024]).
(§2) Spectra were processed with Topspin (Bruker) and analyzed using CCPN Analysis v.2.4.2 (Vranken et al. [2005]). The weighted average chemical shift perturbations (CSP) for backbone amides (Δδavg) was calculated according to Eq. 1 (modified after Williamson [2013]):1 Δδavg=δH^2+δN/25^2 where δH and δN are the CSPs for ^1H and ^15N nuclei. Titration data were fitted to a 1:1 model Eq. (2), which simplifies to (3) when the ligand concentration [Lt] is much higher than the protein concentration [Pt] (Arai et al. [2012]; Wang et al. [1996]; Williamson [2013]):2 Δδobs=ΔδmaxKD+[Pt]+[Lt]-KD+[Pt]+[Lt]^2-4[Pt][Lt]/2[Pt] 3 Δδobs=[Lt]/KD+[Lt]Δδmax where Δδobs and Δδmax are the observed and maximal change in the chemical shift and KD is the dissociation constant. The error in KD was estimated by manually adjusting KD to higher and lower values and observing the range over which the fit of the CSP data to the model remained within the peak picking error bars of the CSPs.
(§3) The fractional populations of the free and bound states were calculated using the peak height (I) as follows:4 ffree=Ifree/Ifree+Ibound,fbound=Ibound/Ifree+Ibound
(§4) Here, ffree and fbound represent the fractions of the protein in the free and bound states. The uncertainties in the peak heights represent the noise level in the spectra. The dissociation constant KD was determined using:5 KD=ffree.Lfree/fbound
(§5) In this equation, [Lfree] represents the concentration of the free ligand, which was approximated as the total ligand concentration [Ltotal] because the ligand was in large excess relative to the protein. The mean KD value was determined by averaging KD values across the used residues.

For assay [2], the target named is T2, BcX E78Q-Y69A (Niallia circulans, UniProt P09850, E106Q/Y97A).
T2 construct: made in house
Kind of assay: NMR titration (1H-15N HSQC) of 15N-labeled BcX E78Q-Y69A with ligand. Type of assay: binding, Bacillus circulans. The method, then: as §1, §2, §3, §4, §5

The target in assay [3] is T1, BcX E78Q. Particulars: ref Saberi et al. [2024], cited from earlier work.
Assay [4] addresses T2, BcX E78Q-Y69A. Particulars: ref Saberi et al. [2024], cited from earlier work.
Setting [5] is: α-helix region, Para-X3 vs Dia-X3.
[6] abbreviates: α-helix region, global fit of CSP, pH 5.8, 20 °C, read-out: Dissociation constant KD, helix.
Setting [7] is: secondary binding site, read-out: Dissociation constant KD, SBS.

For the molecule `CC1(C)CC(O[C@@H]2OC[C@@H](O[C@@H]3OC[C@@H](O[C@@H]4OC[C@@H](O)[C@H](O)[C@H]4O)[C@H](O)[C@H]3O)[C@H](O)[C@H]2O)CC(C)(C)N1[O]` [Para-X3, β-D-xylopyranosyl-(1 → 4)-β-D-xylopyranosyl-(1 → 4)-1-TEMPOL-β-D-xylopyranoside], the Kd is above 8 mM on BcX E78Q [1] (active site, CSP of amides, up to 8 mM ligand, NB = no binding, read-out: Dissociation constant KD, active site); 1.6 mM on BcX E78Q [1] (setting [6]); above 8 mM on BcX E78Q-Y69A [2] (active site, fit of CSP curves (fast exchange), NB = no binding, read-out: Dissociation constant KD, active site); 2.4 mM on BcX E78Q-Y69A [2] (setting [6]). Also, the “Binding in the active site cavity (CSP or intensity loss of amide resonances)” value at BcX E78Q [1] (inside active site cleft, up to 8 mM ligand) is listed as “absent or very weak”. Besides, the results for the “Affinity for helix region, fold higher than for the diamagnetic equivalent (Dia-X3)” value at BcX E78Q [1] (setting [5]) and at BcX E78Q-Y69A [2] (setting [5]) were 2.7 fold and 1.4 fold, respectively. Besides, the “CSPs or PRE for amides in the inner palm region (active site)” value on BcX E78Q-Y69A [2] (8 mM ligand) is listed as “No significant CSPs or PRE”.

As to `OC1OC[C@@H](O[C@@H]2OC[C@@H](O[C@@H]3OC[C@@H](O)[C@H](O)[C@H]3O)[C@H](O)[C@H]2O)[C@H](O)[C@H]1O` (some centres unmarked) [X3, xylotriose], the Kd on BcX E78Q [3] (active site, read-out: Dissociation constant KD, active site) is 5.7 mM; on BcX E78Q [3] (setting [7]), 23 mM; at BcX E78Q-Y69A [4] (active site, aglycon subsites, 2:1 model, read-out: Dissociation constant KD2, active site) it was 24 mM; on BcX E78Q-Y69A [4] (active site, glycon subsites, 2:1 model, read-out: Dissociation constant KD1, active site) it was 15 mM; on BcX E78Q-Y69A [4] (setting [7]), 22 mM.

For `OC1OC[C@@H](O[C@@H]2OC[C@@H](O[C@@H]3OC[C@@H](O[C@@H]4OC[C@@H](O)[C@H](O)[C@H]4O)[C@H](O)[C@H]3O)[C@H](O)[C@H]2O)[C@H](O)[C@H]1O` (some centres unmarked) [X4], the Kd on BcX E78Q [3] (setting [7]) is 2.3 mM.
